Reference: ChEMBL document CHEMBL5729403, “Small molecule modulators of the BTB domain of Keap1” (2022)

Test: HEK293 luciferase: Purpose of the AssayThe purpose of this assay is to identify small molecule inhibitors of Keap1, preventing Keap1 binding to Nrf2, and thus activating the Nrf2 signalling pathway in HEK-293 ARE firefly luciferase transiently transfected cells. HEK-293 cells express wild-type Keap1 protein and therefore have low constitutive levels of Nrf2 protein and Nrf2-dependent transcription. […] When Keap1 is inhibited, Nrf2 signalling is activated, and there is an increase in luciferase expression and light emission.Assay WorkflowCryopreserved HEK ARE luciferase cells were rapidly thawed in a 37° C. water bath and resuspended in assay culture medium (DMEM, 10% FCS, 2 mM L-glutamine). The cell suspension was pelleted by centrifugation ([…]; 300 g) using a Heraeus benchtop centrifuge. Supernatant was removed and the pellet was gently resuspended in 5 mL culture medium per vial. Cell viability and cell number was measured using an Invitrogen Countess automated cell counter (typical viability 80%), and cells were diluted to a density of 5.0×10^5 cells/mL.Cells were then plated out into white 384-well plates (Greiner 781080) using a Multidrop Combi, 20 μL/well, to give 10,000 cells/well. As appropriate, test compounds had been added to wells prior to dispensing cells using an Echo 555 acoustic dispenser (Labcyte). Plates were left at room temperature for ˜10 min to promote even cell settling across the plate before incubation for 18 h at 37° C., 95% humidity and 5% CO2.After 18 h incubation, plates were removed from the incubator and allowed to cool to room temperature for 30 min, before 10 μL per well SteadyGlo reagent detection reagent was added (as per manufacturer's instructions, 10 min before required 10 mL room temperature buffer was added to one vial of lyophilised substrate and inverted several times to fully dissolve). Plates were then incubated in the dark for 30 min before reading on an Envision plate reader.Preparation of Compounds for ScreeningCompounds were acoustically dispensed using a Labcyte Echo, using a 10 pt dose curve with a top concentration of 100 μM. Assay wells were backfilled with DMSO to a total of 60 nL to maintain 0.3% (v/v) DMSO through the assay.Data Analysis Software and Calculation of ResultsThe Stimulator signal was defined using 30 μM tert-butyl hydroquinone (tBHQ) and the Neutral signal by DMSO vehicle control. All calculations were performed using GeneData.

Structure (SMILES) | EC50
CCc1cccc(C2(OC)C=C(C#N)C(=O)C(C)(C)C2)n1 (centres undefined) | > 30000 nM
COC1(c2cccc(-c3ccccc3)n2)C=C(C#N)C(=O)C(C)(C)C1 (centres undefined) | 10000 nM
COC1(c2cccc(C)n2)C=C(C#N)C(=O)C(C)(C)C1 (centres undefined) | 269 nM
COC1(c2ccc(C)cc2)C=C(C#N)C(=O)C(C)(C)C1 (centres undefined) | 309 nM
